We go through eleven compounds from EPA's ToxValDB 9.5.

The test system of one data set is Bovidae. The conditions noted are these: for LEL: no effects.
For a further data set, the system named is Danio rerio. The conditions noted are these: acute, mortality.
Data set [1] has as its system Equus caballus. Conditions: acute; oral; unspecified; mortality.
A further data set has as its system Meleagris sp. The conditions noted are these: chronic/long-term; duration: 16 weeks; oral; feed; M/F; no effects.
The test system of another data set is Numida meleagris. Conditions: subchronic; duration: 35 days; oral; feed; no effects.
For another data set, the system named is Oryctolagus sp. Conditions: oral.
The subject of another data set is Phasianus sp. Conditions: subchronic; duration: 35 days; oral; feed; food consumption.
The next data set relates to Tagia sp. Conditions: acute; duration: 14 days; mortality.
Data set [2] deals with Equus caballus. Nature of the data set: ALD; higher = less toxic. Conditions: acute; oral; unspecified; mortality.
The subject of a further data set is Sus scrofa. The conditions noted are these: oral, diet, Not specified; for LEL: duration: 28 days, no effects.
A further data set concerns Anas platyrhynchos. Conditions: reproductive; development.
The test system of a further data set is Felidae. Conditions: chronic; duration: 420 days; oral; diet; M/F; Cat; neurology.
In another data set the test system is Neovison vison. The conditions noted are these: chronic; duration: 93 days; oral; diet; neurology.
In another data set the test system is Oncorhynchus mykiss. Conditions: chronic/long-term; duration: 112 days; oral; feed; hematological.
In the next data set the test system is Ovis sp. Conditions: subchronic, oral, diet.
In another data set the test system is Mus musculus. The conditions noted are these: acute; oral; gavage; M; ICR; clinical signs.
The next data set deals with Macaca mulatta. The conditions noted are these: chronic; duration: 183 days; oral; capsule; M/F; clinical chemistry.
For data set [3] the following is noted: repeat dose other; other.
For another data set, the system named is Bibionidae. Conditions: chronic/long-term; other.
In the next data set the test system is Pontoscolex corethrurus. The conditions noted are these: acute; duration: 14 days; body weight.
The test system of another data set is Homo sapiens. The conditions noted are these: clinical, oral.
In the next data set the test system is Leuciscus idus. Conditions: acute; duration: 96 hours; mortality.

In the case of `ClC1=C(Cl)[C@]2(Cl)[C@@H]3[C@@H](Cl)[C@H]4O[C@H]4[C@@H]3C1(Cl)C2(Cl)Cl` [Heptachlor epoxide B], the no observed adverse effect level (NOAEL) with Bovidae (subchronic, oral, diet, F) amounted to 1.5 mg/kg-day; in the data set with Canidae (chronic, duration: 2 years, oral, diet, M/F, Beagle, clinical chemistry) it was 0.025 mg/kg-day; in the data set with Gallus gallus (chronic, duration: 25 weeks, oral, diet, M/F, development) it was 0.002 mg/kg-day.
Take `CC[C@@H](C(=O)[C@@H](C)[C@@H](O)[C@H](C)CCc1ccc(C)c(O)c1C(=O)[O-])[C@H]1O[C@](CC)([C@H]2CC[C@](O)(CC)[C@H](C)O2)C[C@@H]1C.[Na+]` [Lasalocid sodium]: the LEL in the data set on Canidae (repeat dose other, oral, diet, Dog Other, clinical signs) worked out at 5 mg/kg-day; in the data set on Gallus gallus (subchronic, duration: 13 weeks, M/F, growth), 225 mg/kg-day; in the data set with Meleagris sp. it was 375 mg/kg; with Numida meleagris it was 240 mg/kg; in the data set with Phasianus sp., 180 mg/kg. Moreover, the LC50 with Danio rerio (duration: 96 hours) was found to be 2.5 µg/mL; in the data set on Tagia sp. it was 71.8 mg/kg. The same compound had an LD50 in the data set with Equus caballus [1] of 15 mg/kg. Moreover, the NOEL came to 0.5 mg/kg-day with Oryctolagus sp. (developmental, duration: 23 days, gavage, F, New Zealand, development) and 0.5 mg/kg-day with Rattus norvegicus (chronic, duration: 2 years, oral, M, organ weight). The ALD with Equus caballus [2] was 15 mg/kg.
Consider `O=C(O)CC(O)C(=O)O` (stereo unspecified) [Malic acid], for which the LEL amounted to 23000 mg/kg-day in the data set on Bovidae (subchronic, oral, diet); 50000 mg/kg-day in the data set with Canidae (chronic, duration: 104 weeks, M/F, Beagle, no effects); 20000 mg/kg-day in the data set with Gallus gallus (short-term, duration: 21 days, oral, diet, food consumption); 12000 mg/kg-day in the data set with Sus scrofa (short-term, M/F).
With `[CH3][Hg+]` [Methyl mercury(II) cation], the LOAEL in the data set with Anas platyrhynchos was 5 mg/kg; with Canidae (chronic, duration: 385 days, oral, Dog Other, neurology) it was 0.12 mg/kg-day; in the data set on Neovison vison it was 0.18 mg/kg-day; in the data set on Ovis sp. (duration: 59 days, neurology) it was 0.225 mg/kg-day. In addition, the NOAEL with Bovidae (subchronic, duration: 90 days, neurology) worked out at 0.1 mg/kg-day; in the data set on Felidae, 0.02 mg/kg-day; in the data set on Gallus gallus (reproduction developmental, duration: 50 days, F, reproduction) it was 0.75 mg/kg-day; in the data set on Oncorhynchus mykiss it was 0.17 mg/kg-day; in the data set on Sus scrofa (subchronic, duration: 60 days, histopathology: nonneoplastic) it was 0.19 mg/kg-day.
With `C=C(/C=C\C[C@@H](O)[C@@H](O)[C@H](O)C/C=C/C=C\[C@@H](O)C[C@@H]1O[C@H](C[C@@H](O)[C@H](O)C[C@H]2O[C@H]([C@H](O)[C@H](O)CC[C@H](O)/C=C/[C@H](C)[C@@H](O)C[C@]3(O)O[C@H]([C@@H](O)[C@@H](O)CCCCCCC[C@@]45C[C@@H](C)C[C@@](C)(O4)[C@@H](CCCCCCC[C@@H](O)C[C@H](O)[C@@H](O)[C@@H](O)[C@H]4O[C@H](C[C@H](O)[C@H](O)/C(C)=C/[C@H](O)CC[C@H](O)C(=O)N/C=C/C(=O)NCCCO)[C@H](O)[C@@H](O)[C@@H]4O)O5)C[C@@H](O)[C@H]3O)C[C@@H](O)[C@@H]2O)[C@@H](O)[C@H](O)[C@H]1O)CC[C@H](O)[C@@H](O)[C@H](O)[C@H](C)C[C@H]1O[C@H](/C=C\[C@@H](O)[C@H](O)C[C@@H]2C[C@@H]3C[C@H](O2)[C@@H](CC[C@H]2O[C@H](CN)C[C@H]2O)O3)[C@@H](O)[C@H](O)[C@H]1O` [Ostreocin-D], in the data set on Mus musculus, the LOAEL was found to be 0.2 mg/kg-day.
The compound `O=S(=O)(O)C(F)(F)C(F)(F)C(F)(F)C(F)(F)C(F)(F)C(F)(F)C(F)(F)C(F)(F)F` [Perfluorooctanesulfonic acid] yielded an NOAEL in the data set on Macaca mulatta of 0.03 mg/kg-day.
`Cl.N/C(=N\N=C\c1ccc(Cl)cc1)N/N=C/c1ccc(Cl)cc1` [Robenidine hydrochloride]: the NOEC in data set [3] is > 1.8 mg/kg-day; in the data set on Bibionidae, 50 mg/kg. Moreover, the LEL is 60 mg/kg-day in the data set with Bovidae (short-term, duration: 28 days); 225 mg/kg-day in the data set with Gallus gallus (subchronic, duration: 9 weeks, oral, diet, M/F, no effects); 82.5 mg/kg-day in the data set on Gallus gallus (subchronic, duration: 35 days, oral, diet, M/F, Chicken, no effects); 500 mg/kg-day in the data set on Oryctolagus sp. (subchronic, duration: 48 days, diet, no effects); 120 mg/kg-day in the data set with Sus scrofa (short-term). Moreover, the NOEL in the data set on Canidae (subchronic, duration: 90 days, Dog Other, organ weight) worked out at 7.5 mg/kg-day. Also, the results for the LC50 in the data set with Danio rerio and in the data set with Pontoscolex corethrurus were 0.036 µg/mL and > 1000 mg/kg, respectively. For the same compound, the no observed adverse effect level (NOAEL) with Oryctolagus sp. (reproduction developmental, duration: 84 days, diet, New Zealand, reproduction) is 11 mg/kg-day.
For `COc1cc2c(c3oc4cccc(O)c4c(=O)c13)[C@@H]1C=CO[C@@H]1O2` [Sterigmatocystin], the LEL with Ovis sp. (duration: 8 weeks, no effects) is 0.3 mg/kg-day.
In the data set with Homo sapiens (duration: 12 weeks, neurology), `CCCCCc1cc(O)c2c(c1)OC(C)(C)[C@@H]1CCC(C)=C[C@@H]21` [Tetrahydrocannabinol] registered an LEL of 2.5 mg/day. In addition, in the data set on Homo sapiens (capsule, other), the “LOAEL (mg/person-day)” value came out at 2.5.
In the case of `CN(C)C.Cl` [Trimethylamine hydrochloride], in the data set with Leuciscus idus, the LC50 was > 500 µg/mL. In the data set on Rattus norvegicus (subchronic, duration: 90 days), this compound showed an NOAEL of 144 mg/kg-day.
In the data set on Sus scrofa (short-term, duration: 21 days, food consumption), `CC1=C[C@H]2O[C@@H]3[C@H](O)C[C@](C)([C@@]2(CO)[C@H](O)C1=O)[C@@]31CO1` [Vomitoxin] gave an LOEL of 0.35 mg/kg-day.

One may read the NOAEL as the highest dose or exposure tested at which no adverse effect was seen. Broadly, the LD50 is the dose at which mortality reaches 50%. The term LOAEL denotes the lowest dose or exposure tested at which an adverse effect was seen.
